In BindingDB's records for doi:10.1021/jm0496077 (University of Southern California, 2005):

Legend:
[1] = molecular target: Integrase (Human immunodeficiency virus 1); experiment: Inhibitory concentration against human immuno deficiency virus type 1 integrase (3'-processing)
[2] = molecular target: Integrase (Human immunodeficiency virus 1); experiment: Inhibitory concentration against human immuno deficiency virus type 1 integrase (Strand Transfer)

Cc1ccc(/C=C2\SC(=S)N(CC(=O)Nc3cc([N+](=O)[O-])ccc3O)C2=O)cc1 [N-(2-Hydroxy-5-nitro-phenyl)-2-{4-oxo-2-thioxo-5-[1-p-tolyl-meth-(Z)-ylidene]-thiazolidin-3-yl}-acetamide] gave an IC50 [1] of 84 µM and an IC50 [2] of 80 µM.

For O=C(CCN1C(=O)/C(=C/c2ccccc2Cl)SC1=S)Nc1ccc([N+](=O)[O-])cc1 [3-{5-[1-(2-Chloro-phenyl)-meth-(Z)-ylidene]-4-oxo-2-thioxo-thiazolidin-3-yl}-N-(4-nitro-phenyl)-propionamide], the IC50 [1] was > 100 µM and the IC50 [2] was > 100 µM.

In the case of CCc1ccc(/C=C2/SC(=S)N(CC(=O)Nc3cccc(C(=O)O)c3)C2=O)cc1 [3-(2-{5-[1-(4-Ethyl-phenyl)-meth-(Z)-ylidene]-4-oxo-2-thioxo-thiazolidin-3-yl}-acetylamino)-benzoic acid], the IC50 [1] is reported as > 100 µM and the IC50 [2] is reported as > 100 µM.

In the case of Cc1ccc(/C=C2/SC(=S)N(CC(=O)Nc3cccc(C(=O)O)c3)C2=O)cc1 [3-(2-{4-Oxo-2-thioxo-5-[1-p-tolyl-meth-(Z)-ylidene]-thiazolidin-3-yl}-acetylamino)-benzoic acid], the IC50 [1] is reported as 98 µM and the IC50 [2] is reported as > 100 µM.

With Cc1ccc(/C=C2\SC(=S)N(CC(=O)Nc3ccc([N+](=O)[O-])cc3O)C2=O)cc1 [N-(2-Hydroxy-4-nitro-phenyl)-2-{4-oxo-2-thioxo-5-[1-p-tolyl-meth-(Z)-ylidene]-thiazolidin-3-yl}-acetamide] the IC50 [1] was > 100 µM and the IC50 [2] was > 100 µM.

In the case of Cc1ccc2nc(C(C#N)=Cc3ccc(-c4ccc(O)c(C(=O)O)c4)o3)[nH]c2c1 [5-{5-[(E)-2-Cyano-2-(5-methyl-1H-benzoimidazol-2-yl)-vinyl]-furan-2-yl}-2-hydroxy-benzoic acid], the IC50 [1] is reported as 16 µM and the IC50 [2] is reported as 8 µM.

Work on COc1ccc(/C=C2/SC(=S)N(CCC(=O)Nc3ccc(C(=O)O)c(O)c3)C2=O)cc1OC [4-(3-{5-[1-(3,4-Dimethoxy-phenyl)-meth-(Z)-ylidene]-4-oxo-2-thioxo-thiazolidin-3-yl}-propionylamino)-2-hydroxy-benzoic acid] yielded an IC50 [1] of 61 µM and an IC50 [2] of 17 µM.

For COc1ccc(/C=C2\SC(=S)N(CCC(=O)Nc3cccc(C(=O)O)c3)C2=O)cc1, the IC50 [1] was > 100 µM and the IC50 [2] was > 100 µM.

Cc1ccc(/C=C2\SC(=S)N(CCC(=O)Nc3ccc(S(=O)(=O)Nc4nccs4)cc3)C2=O)cc1 [3-{4-Oxo-2-thioxo-5-[1-p-tolyl-meth-(Z)-ylidene]-thiazolidin-3-yl}-N-[4-(thiazol-2-ylsulfamoyl)-phenyl]-propionamide] showed an IC50 [1] of 83 µM and an IC50 [2] of 44 µM.

In the case of O=C(NC(=S)Nc1ccc(O)c(C(=O)O)c1)c1ccccc1 [5-(3-Benzoyl-thioureido)-2-hydroxy-benzoic acid], the IC50 [1] is reported as > 100 µM and the IC50 [2] is reported as > 100 µM.

O=C(CCN1C(=O)/C(=C/c2cccs2)SC1=S)Nc1ccc(O)c(C(=O)O)c1 [2-Hydroxy-5-(3-{4-oxo-5-[1-thiophen-2-yl-meth-(Z)-ylidene]-2-thioxo-thiazolidin-3-yl}-propionylamino)-benzoic acid] was tested, and the IC50 [1] was 38 µM and the IC50 [2] was 38 µM.

COc1cc(/C=C2\SC(=S)N(CC(=O)Nc3cc(Cl)ccc3O)C2=O)cc(OC)c1OC [N-(5-Chloro-2-hydroxy-phenyl)-2-{4-oxo-2-thioxo-5-[1-(3,4,5-trimethoxy-phenyl)-meth-(Z)-ylidene]-thiazolidin-3-yl}-acetamide] gave an IC50 [1] of 32 µM and an IC50 [2] of 17 µM.

For O=C(NN1C(=O)C(=Cc2ccc(Br)cc2)SC1=S)c1ccccc1O [N-{5-[1-(4-Bromo-phenyl)-meth-(Z)-ylidene]-4-oxo-2-thioxo-thiazolidin-3-yl}-2-hydroxy-benzamide], the IC50 [1] was 52 µM and the IC50 [2] was 27 µM.

O=C(CN1C(=O)/C(=C/c2ccccc2Cl)SC1=S)Nc1cc([N+](=O)[O-])ccc1O [2-{5-[1-(2-Chloro-phenyl)-meth-(Z)-ylidene]-4-oxo-2-thioxo-thiazolidin-3-yl}-N-(2-hydroxy-5-nitro-phenyl)-acetamide] showed an IC50 [1] of 20 µM and an IC50 [2] of 18 µM.

O=C(CCN1C(=O)/C(=C/c2ccc3c(c2)OCO3)SC1=S)Nc1ccc2c(c1)OCO2 [N-Benzo[1,3]dioxol-5-yl-3-{5-[1-benzo[1,3]dioxol-5-yl-meth-(Z)-ylidene]-4-oxo-2-thioxo-thiazolidin-3-yl}-propionamide] gave an IC50 [1] of 97 µM and an IC50 [2] of 93 µM.

COc1ccccc1/C=C1/SC(=S)N(CCC(=O)Nc2ccc(O)cc2)C1=O [N-(4-Hydroxy-phenyl)-3-{5-[1-(2-methoxy-phenyl)-meth-(E)-ylidene]-4-oxo-2-thioxo-thiazolidin-3-yl}-propionamide] was tested, and the IC50 [1] was 99 µM and the IC50 [2] was 100 µM.

With O=C(CN1C(=O)/C(=C/c2ccccc2Cl)SC1=S)Nc1ccc([N+](=O)[O-])cc1O [2-{5-[1-(2-Chloro-phenyl)-meth-(Z)-ylidene]-4-oxo-2-thioxo-thiazolidin-3-yl}-N-(2-hydroxy-4-nitro-phenyl)-acetamide] the IC50 [1] was > 100 µM and the IC50 [2] was > 100 µM.

Molecule CCc1ccc(/C=C2\SC(=S)N(CCC(=O)Nc3ccc(O)c(C(=O)O)c3)C2=O)cc1 [5-(3-{5-[1-(4-Ethyl-phenyl)-meth-(Z)-ylidene]-4-oxo-2-thioxo-thiazolidin-3-yl}-propionylamino)-2-hydroxy-benzoic acid] has an IC50 [1] of 15 µM and an IC50 [2] of 11 µM.

Molecule COc1cc(/C=C2/SC(=S)N(CCC(=O)Nc3ccc(C(=O)O)cc3)C2=O)cc(OC)c1OC has an IC50 [1] of 97 µM and an IC50 [2] of 85 µM.

O=C(CCN1C(=O)/C(=C/c2cccs2)SC1=S)Nc1cccc(O)c1 [N-(3-Hydroxy-phenyl)-3-{4-oxo-5-[1-thiophen-2-yl-meth-(Z)-ylidene]-2-thioxo-thiazolidin-3-yl}-propionamide] was tested, and the IC50 [1] was > 100 µM and the IC50 [2] was > 100 µM.

O=C(CCN1C(=O)/C(=C/c2ccc3c(c2)OCO3)SC1=S)Nc1ccc(C(=O)O)c(O)c1 [4-(3-{5-[1-Benzo[1,3]dioxol-5-yl-meth-(Z)-ylidene]-4-oxo-2-thioxo-thiazolidin-3-yl}-propionylamino)-2-hydroxy-benzoic acid] showed an IC50 [1] of 33 µM and an IC50 [2] of 23 µM.

O=C(CN1C(=O)/C(=C2\SC(=S)N(CC(=O)Nc3ccc(C(=O)O)cc3)C2=O)SC1=S)Nc1ccc(C(=O)O)cc1 [4-{5-[3-(4-carboxyphenylcarbamoylmethyl)-4-oxo-2-thioxo-1,3-thiazolan-5-yliden]-4-oxo-2-thioxo-1,3-thiazolan-3-ylmethylcarboxamido}benzoic acid] was tested, and the IC50 [1] was 59 µM and the IC50 [2] was 75 µM.

In the case of COc1cc(C(=O)Nc2ccc(O)c(C(=O)O)c2)cc(OC)c1OC [2-Hydroxy-5-(3,4,5-trimethoxy-benzoylamino)-benzoic acid], the IC50 [1] is reported as > 100 µM and the IC50 [2] is reported as > 100 µM.

O=C(O)c1ccc(S(=O)(=O)c2ccc3c(c2)C(=O)N(c2ccc(O)c(C(=O)O)c2)C3=O)cc1 [5-[5-(4-Carboxy-benzenesulfonyl)-1,3-dioxo-1,3-dihydro-isoindol-2-yl]-2-hydroxy-benzoic acid] gave an IC50 [1] of 66 µM and an IC50 [2] of 44 µM.

With O=C(CCN1C(=O)/C(=C/c2cccs2)SC1=S)Nc1ccc2ccccc2c1 [N-Naphthalen-2-yl-3-{4-oxo-5-[1-thiophen-2-yl-meth-(Z)-ylidene]-2-thioxo-thiazolidin-3-yl}-propionamide] the IC50 [1] was > 100 µM and the IC50 [2] was > 100 µM.

CC(/C=C1\SC(=S)N(CCC(=O)Nc2ccc(O)c(C(=O)O)c2)C1=O)=C\c1ccccc1 [2-Hydroxy-5-(3-{5-[(E)-2-methyl-3-phenyl-prop-2-en-(Z)-ylidene]-4-oxo-2-thioxo-thiazolidin-3-yl}-propionylamino)-benzoic acid] gave an IC50 [1] of 36 µM and an IC50 [2] of 23 µM.
